Assay results reported in patent US5965607A, “Substituted Benzo[1,4]dioxines as antiobesity agents” (American Home Products Corporation, priority 1997, dated 1999).

Experiments:
[1] = molecular target: human β2 adrenergic receptors (Homo sapiens, UniProt P07550); experiment: cAMP elevation in CHO cells transfected with human β2 adrenergic receptor; type: cell-based; conditions: 10 min, CHO cells expressing human β2 receptor, compound at 10 nM, 37° C., relative to isoproterenol at 10 μM; for activation at 0.01 µM: read-out: β2, % of isoproterenol activity (increase in cAMP)
Protocol: (§1) The activity of the test compounds on human β-adrenergic receptors was determined with Chinese hamster ovary (CHO) cells transfected with human β3, β2, or β1 adrenergic receptors. The preparation of these cells has been described in Emorine, L. J., Marullo, S., Briend-Sutren, M., Patey, G., Tate, K., Delavier-Klutchko, C., Strosberg, A. D. Molecular Characterization of the Human Beta 3-AdrenergicReceptor Science 1989,245(8), 1118-1121 and in Muzzin, P., Revelli, J.-P., Kuhne, F., Gocayne, J. D., McCombie, W. R., Venter, J. C., Giacobino, J.- P., Fraser, C. M. An Adipose Tissue-Specific Beta 3-Adrenergic Receptor. Molecular Cloning and Down-Regulation in Obesity J. Biol. Chem. 1991, 226, 24053-24058. Agonist activity is indicated by increased cAMP levels in the CHO cells. Selectivity of the test compounds for the β3 receptor was assessed by comparison with results in β2 and β1 adrenergic receptor transfected cells.
(§2) 1). Chinese hamster ovary (CHO) cells transfected with human β3, β2, or β1 adrenergic receptors were used in the assay.
(§3) 2). Cells were grown to confluent conditions in 24 well plates.
(§4) 3). Drugs were dissolved in DMSO at a concentration of 10 μM.
(§5) 4). Cells were incubated with drug at 10 nM concentration for 10 min at 37° C. Isoproterenol (Standard 1) was used as the standard compound and assayed at 10 μM which gives a maximal cAMP elevation in all 3 cell types.
(§6) 5). Cell cAMP concentrations were assayed using a scintillation proximity assay from Amersham Corp (Chicago, Ill.).
(§7) 6). Activities for the test compounds are expressed as a percentage of the isoproterenol response.
(§8) a Human β receptors expressed in Chinese hamster ovary cells, compounds tested at 10 nM, results expressed as % of isoproterenol activity (increase in cAMP) at 10 μM.

[2] = molecular target: human β3 adrenergic receptors (Homo sapiens, UniProt P13945); experiment: cAMP elevation in CHO cells transfected with human β3 adrenergic receptor; type: cell-based; conditions: 10 min, CHO cells expressing human β3 receptor, compound at 10 nM, 37° C., relative to isoproterenol at 10 μM; for activation at 0.01 µM: read-out: β3, % of isoproterenol activity (increase in cAMP)
Protocol: as §1, §2, §3, §4, §5, §6, §7, §8

plasma free fatty acids = experiment: Effects on free fatty acid levels in rats; type: in vivo, rat; conditions: for Rat Free Fatty Acid, elevation of plasma free fatty acids as % of Standard 2 response: 0.1 mg/kg via gavage, blood collected 50 min later, relative to Standard 2 at 0.1 mg/kg
Protocol: Rats respond to a single oral dose of β3 agonist by increasing plasma free fatty acids (FFA) in response to β3 receptor stimulation on the plasma membrane of the fat cell. 5-{2-[2-(3-Chloro-phenyl)-2-hydroxy-ethylamino]-propyl}-benzo[1,3]dioxole- 2,2-dicarboxylic acid diisopropyl ester (Standard 2) was used as a standard compound. All test compounds were dosed at 0.1 mg/kg and compared to the response by Standard 2.
1). Drugs were dissolved in DMSO at 10 mg/mL.
2). Twenty μl of the DMSO-drug solution was added to 10 mL methyl cellulose:Tween-80 (0.5%:0.1%) for a final concentration of 20 μg/mL.
3). Methyl cellulose:tween-80 drug suspension was given via gavage (1 mL/200g body weight; or 0.1 mg/kg) to rats and blood was collected 50 min later.
4). Plasma was analyzed for free fatty acids using a kit supplied by Biochemical Diagnostics Inc. (Brentwood, N.Y.).
5). Drug response was calculated from the formula below. [formula] Effects on Hyperglycemia in Mice
b Elevation of plasma free fatty acids in rats, compounds tested at 0.1 mg/kg, results expressed as % of 5-{2-[2-(3-chloro-phenyl)-2-hydroxy-ethylamino]-propyl}-benzo[1,3]dioxole- 2,2-dicarboxylic acid diisopropyl ester response (78% increase) at 0.1 mg/kg.

human β3 adrenergic receptors, sequence (P13945 whole entry): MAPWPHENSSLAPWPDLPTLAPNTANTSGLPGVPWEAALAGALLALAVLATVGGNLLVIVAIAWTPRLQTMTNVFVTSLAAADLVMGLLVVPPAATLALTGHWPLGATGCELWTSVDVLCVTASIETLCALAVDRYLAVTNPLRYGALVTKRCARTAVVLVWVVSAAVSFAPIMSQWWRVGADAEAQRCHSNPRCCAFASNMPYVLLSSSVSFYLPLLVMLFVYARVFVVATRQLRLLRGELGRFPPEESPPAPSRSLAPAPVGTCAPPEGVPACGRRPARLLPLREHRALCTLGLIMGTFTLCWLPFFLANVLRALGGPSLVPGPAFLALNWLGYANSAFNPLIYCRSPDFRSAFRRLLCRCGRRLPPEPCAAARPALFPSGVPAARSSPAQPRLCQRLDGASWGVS
human β2 adrenergic receptors, sequence (P07550 whole entry): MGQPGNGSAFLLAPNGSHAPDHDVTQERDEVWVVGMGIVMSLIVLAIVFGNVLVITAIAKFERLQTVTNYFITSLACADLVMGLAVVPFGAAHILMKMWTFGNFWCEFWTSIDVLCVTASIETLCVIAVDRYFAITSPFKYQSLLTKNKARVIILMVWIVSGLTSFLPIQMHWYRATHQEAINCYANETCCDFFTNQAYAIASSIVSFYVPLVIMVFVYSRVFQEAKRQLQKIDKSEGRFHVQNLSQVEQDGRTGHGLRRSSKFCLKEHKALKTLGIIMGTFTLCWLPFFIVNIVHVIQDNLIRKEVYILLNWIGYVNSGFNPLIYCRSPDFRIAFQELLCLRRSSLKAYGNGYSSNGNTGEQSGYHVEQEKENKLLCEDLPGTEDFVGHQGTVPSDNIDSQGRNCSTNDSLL

Compound	activation at 0.01 µM [1] [%]	activation at 0.01 µM [2] [%]	β2, % of isoproterenol activity (increase in cAMP) [1] [%]	β3, % of isoproterenol activity (increase in cAMP) [2] [%]	Rat Free Fatty Acid, elevation of plasma free fatty acids as % of Standard 2 response (plasma free fatty acids) [%]	increase of plasma free fatty acids in rats (plasma free fatty acids; 0.1 mg/kg, response of the standard itself) [%]
CC(C)OC(=O)C1Oc2ccc(C[C@@H](C)NC[C@H](O)c3cccc(Cl)c3)cc2OC1C(=O)OC(C)C (some centres unmarked) [Example 4]	9	4	–	–	32	–
CCCCOC(=O)C1Oc2ccc(C[C@@H](C)NC[C@H](O)c3cccc(Cl)c3)cc2OC1C(=O)OCCCC (some centres unmarked) [Example 6]	16	51	–	–	0	–
CC(Cc1ccc2c(c1)OC(C(=O)OC(C)C)(C(=O)OC(C)C)O2)NCC(O)c1cccc(Cl)c1 (centres unmarked) [5-{2-[2-(3-Chloro-phenyl)-2-hydroxy-ethylamino]-propyl}-benzo[1,3]dioxole-2,2-dicarboxylic acid diisopropyl ester, reference compound]	–	–	–	–	–	78
CC(C)OC(=O)C1Oc2cc(C[C@@H](C)NC[C@H](O)c3cccc(Cl)c3)ccc2OC1C(=O)O (stereo partly drawn) [Example 5, (2,3-cis)-6-{(2R)-2-[(2R)-2-(3-Chloro-phenyl)-2-hydroxy-ethylamino]-propyl}-2,3-dihydro-benzo[1,4]dioxine-2,3-dicarboxylic acid 3-isopropyl ester]	11	50	–	–	6	–
CCOC(=O)C1Oc2ccc(C[C@@H](C)NC[C@H](O)c3cccc(Cl)c3)cc2OC1C(=O)OCC (stereo partly drawn) [Example 8, (2,3-cis)-6-{(2R)-2-[(2R)-2-(3-Chloro-phenyl)-2-hydroxy-ethylamino]-propyl}-2,3-dihydro-benzo[1,4]dioxine-2,3-dicarboxylic acid diethyl ester]	–	–	–	–	19	–
CCOCCOC(=O)C1Oc2ccc(C[C@@H](C)NC[C@H](O)c3cccc(Cl)c3)cc2OC1C(=O)OCCOCC (relative stereo) [Example 7, (2,3-cis)-6-{(2R)-2-[(2R)-2-(3-Chloro-phenyl)-2-hydroxy-ethylamino]-propyl}-2,3-dihydro-benzo[1,4]dioxine-2,3-dicarboxylic acid bis-(2-ethoxy-ethyl)ester]	–	–	33	40	7	–

More lines, main results first:

activation at 0.01 µM [1] [%]	activation at 0.01 µM [2] [%]	β2, % of isoproterenol activity (increase in cAMP) [1] [%]	β3, % of isoproterenol activity (increase in cAMP) [2] [%]	Compound	Rat Free Fatty Acid, elevation of plasma free fatty acids as % of Standard 2 response (plasma free fatty acids) [%]	increase of plasma free fatty acids in rats (plasma free fatty acids; 0.1 mg/kg, response of the standard itself) [%]
4	3	–	–	C[C@H](Cc1ccc2c(c1)OC(C(=O)OC1CCCC1)C(C(=O)OC1CCCC1)O2)NC[C@H](O)c1cccc(Cl)c1 (stereo partly drawn) [Example 10, (2,3-cis)-6-{(2R)-2-[(2R)-2-(3-Chloro-phenyl)-2-hydroxy-ethylamino]-propyl}-2,3-dihydro-benzo[1,4]dioxine-2,3-dicarboxylic acid dicyclopentyl ester]	20	–
11	27	–	–	C[C@H](Cc1ccc2c(c1)OC(C(=O)OCc1ccccc1)C(C(=O)OCc1ccccc1)O2)NC[C@H](O)c1cccc(Cl)c1 (stereo partly drawn) [Example 12, (2,3-cis)-6-{(2R)-2-[(2R)-2-(3-Chloro-phenyl)-2-hydroxy-ethylamino]-propyl}-2,3-dihydro-benzo[1,4]dioxine-2,3-dicarboxylic acid dibenzyl ester]	11	–
38	97	–	–	CCCCCCCCOC(=O)C1Oc2ccc(C[C@@H](C)NC[C@H](O)c3cccc(Cl)c3)cc2OC1C(=O)OCCCCCCCC (stereo partly drawn) [Example 11, (2,3-cis)-6-{(2R)-2-[(2R)-2-(3-Chloro-phenyl)-2-hydroxy-ethylamino]-propyl}-2,3-dihydro-benzo[1,4]dioxine-2,3-dicarboxylic acid dioctyl ester]	5	–
1	3	–	–	C[C@H](Cc1ccc2c(c1)OC(C(=O)OC1CCCCC1)C(C(=O)OC1CCCCC1)O2)NC[C@H](O)c1cccc(Cl)c1 (stereo partly drawn) [Example 9, (2,3-cis)-6-{(2R)-2-[(2R)-2-(3-Chloro-phenyl)-2-hydroxy-ethylamino]-propyl}-2,3-dihydro-benzo[1,4]dioxine-2,3-dicarboxylic acid dicyclohexyl ester]	3	–
